In PubChem BioAssay (NCI):
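Cultured in 96-well plates, cells were exposed to test compound for 48 hours across five concentrations. TGI marks complete inhibition of growth.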

Columns and labels:
Test in all cases: NCI tumour cell line growth inhibition, 48 h
A498 renal = test system: A498 renal
A549 NSCLC = test system: A549 NSCLC
CAKI-1 renal = test system: CAKI-1 renal
CCRF-CEM leukemia = test system: CCRF-CEM leukemia
COLO 205 colon = test system: COLO 205 colon
DLD-1 colon = test system: DLD-1 colon
DMS 114 small cell lung = test system: DMS 114 small cell lung
DMS 273 small cell lung = test system: DMS 273 small cell lung
EKVX NSCLC = test system: EKVX NSCLC
HCC-2998 colon = test system: HCC-2998 colon
HCT-116 colon = test system: HCT-116 colon
HCT-15 colon = test system: HCT-15 colon
HL-60(TB) leukemia = test system: HL-60(TB) leukemia
HOP-18 NSCLC = test system: HOP-18 NSCLC
HOP-62 NSCLC = test system: HOP-62 NSCLC
HOP-92 NSCLC = test system: HOP-92 NSCLC
HT29 colon = test system: HT29 colon
IGROV1 ovarian = test system: IGROV1 ovarian
K-562 leukemia = test system: K-562 leukemia
KM12 colon = test system: KM12 colon
KM20L2 colon = test system: KM20L2 colon
LOX IMVI melanoma = test system: LOX IMVI melanoma
M19-MEL melanoma = test system: M19-MEL melanoma
MALME-3M melanoma = test system: MALME-3M melanoma
MCF7 breast = test system: MCF7 breast
MOLT-4 leukemia = test system: MOLT-4 leukemia
NCI-H226 lung = test system: NCI-H226 lung
NCI-H23 lung = test system: NCI-H23 lung
NCI-H460 lung = test system: NCI-H460 lung
NCI-H522 lung = test system: NCI-H522 lung
NCI/ADR-RES ovarian = test system: NCI/ADR-RES ovarian
OVCAR-3 ovarian = test system: OVCAR-3 ovarian
OVCAR-4 ovarian = test system: OVCAR-4 ovarian
OVCAR-5 ovarian = test system: OVCAR-5 ovarian
OVCAR-8 ovarian = test system: OVCAR-8 ovarian
P388 leukemia = test system: P388 leukemia
P388/ADR leukemia = test system: P388/ADR leukemia
RPMI-8226 leukemia = test system: RPMI-8226 leukemia
RXF 393 renal = test system: RXF 393 renal
SF-268 CNS = test system: SF-268 CNS
SF-295 CNS = test system: SF-295 CNS
SF-539 CNS = test system: SF-539 CNS
SK-MEL-2 melanoma = test system: SK-MEL-2 melanoma
SK-MEL-28 melanoma = test system: SK-MEL-28 melanoma
SK-MEL-5 melanoma = test system: SK-MEL-5 melanoma
SK-OV-3 ovarian = test system: SK-OV-3 ovarian
SN12C renal = test system: SN12C renal
SN12K1 renal = test system: SN12K1 renal
SNB-19 CNS = test system: SNB-19 CNS
SNB-75 CNS = test system: SNB-75 CNS
SNB-78 CNS = test system: SNB-78 CNS
SW-620 colon = test system: SW-620 colon
U251 CNS = test system: U251 CNS
UACC-257 melanoma = test system: UACC-257 melanoma
UACC-62 melanoma = test system: UACC-62 melanoma
UO-31 renal = test system: UO-31 renal
XF 498 CNS = test system: XF 498 CNS
786-0 renal = test system: 786-0 renal
ACHN renal = test system: ACHN renal
LXFL 529 NSCLC = test system: LXFL 529 NSCLC
M14 melanoma = test system: M14 melanoma
RXF-631 renal = test system: RXF-631 renal
TK-10 renal = test system: TK-10 renal

With `CCOC(=O)c1c(C)c2c(n1C)CCc1cn[nH]c1-2` as the molecule, how does the TGI (A498 renal) read?
Its TGI is over 100 µM.

And the TGI (A549 NSCLC)?
The TGI was over 100 µM.

What about the TGI (CAKI-1 renal) of the same molecule?
Its TGI is over 100 µM.

What about the TGI (CCRF-CEM leukemia) of the same molecule?
The TGI was over 100 µM.

And the TGI (COLO 205 colon)?
The TGI was over 100 µM.

And the TGI (DLD-1 colon)?
The TGI was over 100 µM.

And the TGI (DMS 114 small cell lung)?
Its TGI is over 100 µM.

And the TGI (DMS 273 small cell lung)?
The TGI was over 100 µM.

What about the TGI (EKVX NSCLC) of the same molecule?
The TGI was over 100 µM.

What about the TGI (HCC-2998 colon) of the same molecule?
Its TGI is over 100 µM.

What about the TGI (HCT-116 colon) of the same molecule?
The TGI was over 100 µM.

What about the TGI (HCT-15 colon) of the same molecule?
The TGI was over 100 µM.

And the TGI (HL-60(TB) leukemia)?
Its TGI is over 100 µM.

And the TGI (HOP-18 NSCLC)?
The TGI was over 100 µM.

What about the TGI (HOP-62 NSCLC) of the same molecule?
Its TGI is over 100 µM.

And the TGI (HOP-92 NSCLC)?
Its TGI is over 100 µM.

What about the TGI (HT29 colon) of the same molecule?
The TGI was over 100 µM.

What about the TGI (IGROV1 ovarian) of the same molecule?
Its TGI is over 100 µM.

What about the TGI (K-562 leukemia) of the same molecule?
Its TGI is over 100 µM.

And the TGI (KM12 colon)?
The TGI was over 100 µM.

What about the TGI (KM20L2 colon) of the same molecule?
Its TGI is over 100 µM.

And the TGI (LOX IMVI melanoma)?
The TGI was over 100 µM.

What about the TGI (M19-MEL melanoma) of the same molecule?
The TGI was over 100 µM.

What about the TGI (MALME-3M melanoma) of the same molecule?
The TGI was over 100 µM.

And the TGI (MCF7 breast)?
The TGI was over 100 µM.

And the TGI (MOLT-4 leukemia)?
Its TGI is over 100 µM.

What about the TGI (NCI-H226 lung) of the same molecule?
The TGI was over 100 µM.

What about the TGI (NCI-H23 lung) of the same molecule?
The TGI was over 100 µM.

What about the TGI (NCI-H460 lung) of the same molecule?
Its TGI is over 100 µM.

And the TGI (NCI-H522 lung)?
Its TGI is over 100 µM.

What about the TGI (NCI/ADR-RES ovarian) of the same molecule?
The TGI was over 100 µM.

And the TGI (OVCAR-3 ovarian)?
Its TGI is over 100 µM.

And the TGI (OVCAR-4 ovarian)?
The TGI was over 100 µM.

What about the TGI (OVCAR-5 ovarian) of the same molecule?
The TGI was over 100 µM.

What about the TGI (OVCAR-8 ovarian) of the same molecule?
Its TGI is over 100 µM.

And the TGI (P388 leukemia)?
The TGI was over 100 µM.

And the TGI (P388/ADR leukemia)?
Its TGI is over 31.6 µM.

And the TGI (RPMI-8226 leukemia)?
Its TGI is over 100 µM.

And the TGI (RXF 393 renal)?
Its TGI is over 100 µM.

And the TGI (SF-268 CNS)?
The TGI was over 100 µM.

What about the TGI (SF-295 CNS) of the same molecule?
The TGI was over 100 µM.

And the TGI (SF-539 CNS)?
Its TGI is over 100 µM.

And the TGI (SK-MEL-2 melanoma)?
Its TGI is over 100 µM.

What about the TGI (SK-MEL-28 melanoma) of the same molecule?
Its TGI is over 100 µM.

And the TGI (SK-MEL-5 melanoma)?
Its TGI is over 100 µM.

And the TGI (SK-OV-3 ovarian)?
The TGI was over 100 µM.

What about the TGI (SN12C renal) of the same molecule?
Its TGI is over 100 µM.

And the TGI (SN12K1 renal)?
The TGI was over 100 µM.

And the TGI (SNB-19 CNS)?
The TGI was over 100 µM.

What about the TGI (SNB-75 CNS) of the same molecule?
The TGI was over 100 µM.

What about the TGI (SNB-78 CNS) of the same molecule?
Its TGI is over 100 µM.

And the TGI (SW-620 colon)?
Its TGI is over 100 µM.

What about the TGI (U251 CNS) of the same molecule?
The TGI was over 100 µM.

What about the TGI (UACC-257 melanoma) of the same molecule?
The TGI was over 100 µM.

What about the TGI (UACC-62 melanoma) of the same molecule?
Its TGI is over 100 µM.

What about the TGI (UO-31 renal) of the same molecule?
The TGI was over 100 µM.

What about the TGI (XF 498 CNS) of the same molecule?
The TGI was over 100 µM.

What does the source list for `CN1C2(c3ccccc3)c3c(-c4ccccc4)sc(-c4ccccc4)c3C1(c1ccccc1)C1C(=O)N(c3ccccc3)C(=O)C12` (configuration not stated)?
TGI (786-0 renal): > 100 µM; TGI (A498 renal): > 100 µM; TGI (A549 NSCLC): > 100 µM; TGI (ACHN renal): > 100 µM; TGI (CAKI-1 renal): > 100 µM; TGI (CCRF-CEM leukemia): > 100 µM; TGI (COLO 205 colon): > 100 µM; TGI (DLD-1 colon): > 100 µM; TGI (DMS 114 small cell lung): > 100 µM; TGI (DMS 273 small cell lung): > 100 µM; TGI (EKVX NSCLC): > 100 µM; TGI (HCC-2998 colon): > 100 µM; TGI (HCT-116 colon): > 100 µM; TGI (HL-60(TB) leukemia): > 100 µM; TGI (HOP-18 NSCLC): > 100 µM; TGI (HOP-62 NSCLC): > 100 µM; TGI (HOP-92 NSCLC): > 100 µM; TGI (HT29 colon): > 100 µM; TGI (IGROV1 ovarian): > 100 µM; TGI (K-562 leukemia): > 100 µM; TGI (KM12 colon): > 100 µM; TGI (KM20L2 colon): > 100 µM; TGI (LOX IMVI melanoma): > 100 µM; TGI (LXFL 529 NSCLC): > 100 µM; TGI (M14 melanoma): > 100 µM; TGI (M19-MEL melanoma): > 100 µM; TGI (MALME-3M melanoma): > 100 µM; TGI (NCI-H226 lung): > 100 µM; TGI (NCI-H23 lung): > 100 µM; TGI (NCI-H460 lung): > 100 µM; TGI (NCI-H522 lung): > 100 µM; TGI (OVCAR-3 ovarian): > 100 µM; TGI (OVCAR-4 ovarian): > 100 µM; TGI (OVCAR-5 ovarian): > 100 µM; TGI (OVCAR-8 ovarian): > 100 µM; TGI (RPMI-8226 leukemia): > 100 µM; TGI (RXF 393 renal): > 100 µM; TGI (RXF-631 renal): > 100 µM; TGI (SF-268 CNS): > 100 µM; TGI (SF-295 CNS): > 100 µM; TGI (SF-539 CNS): > 100 µM; TGI (SK-MEL-28 melanoma): > 100 µM; TGI (SK-MEL-5 melanoma): > 100 µM; TGI (SK-OV-3 ovarian): > 100 µM; TGI (SN12C renal): > 100 µM; TGI (SNB-19 CNS): > 100 µM; TGI (SNB-75 CNS): > 100 µM; TGI (SNB-78 CNS): > 100 µM; TGI (SW-620 colon): > 100 µM; TGI (TK-10 renal): > 100 µM; TGI (U251 CNS): > 100 µM; TGI (UACC-257 melanoma): > 100 µM; TGI (UACC-62 melanoma): > 100 µM; TGI (UO-31 renal): > 100 µM; TGI (XF 498 CNS): > 100 µM
